Experiment in all cases: normalised viability (% of control), CellTiter-Blue; higher = more viable cells (about 100 = DMSO control)
Details in all cases: incubation time: 72 h

In assay [1] the test system is CAL-148. How it is done:
(§1)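 DSRT, CellTiter-Blue viability, 72 h incubation. Signal is normalised to DMSO and benzethonium chloride controls. Value is the normalised response at dose 6.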

Assay [2] relates to CAL-51. On the procedure:
as §1

Assay [3] concerns CAL-85-1. On the procedure:
as §1

Assay [4] concerns DU-4475. On the procedure:
as §1

Assay [5] has as its system HDQ-P1. How it is done:
as §1

In assay [6] the test system is MDA-MB-453. On the procedure:
as §1

The text below walks through data of the supplement of paper PMC4862054.

Take `C=C(c1ccc(C(=O)O)cc1)c1cc2c(cc1C)C(C)(C)CCC2(C)C` [Bexarotene] (300 nM): the normalised viability in assay [1] turned out to be 92.8%; in assay [2] it was 92.8%; in assay [3] it was 89.8%; in assay [4], 116%; in assay [5], 54.5%; in assay [6], 71.4%.
For `C#Cc1cccc(Nc2ncnc3cc(OCCOC)c(OCCOC)cc23)c1` [Erlotinib] (300 nM), the normalised viability came out at 86.1% in assay [1]; 96.4% in assay [2]; 73.3% in assay [3]; 114% in assay [4]; 63.8% in assay [5]; 86.1% in assay [6].
Consider `C[C@@H](Oc1cc(-c2cnn(C3CCNCC3)c2)cnc1N)c1c(Cl)ccc(F)c1Cl` [Crizotinib] (300 nM), for which the normalised viability in assay [1] turned out to be 101%; in assay [2] it was 99.7%; in assay [3], 92%; in assay [4], 112%; in assay [5] it was 36.5%; in assay [6], 71.1%.
On to `Cc1ccc(C(=O)Nc2ccc(CN3CCN(C)CC3)c(C(F)(F)F)c2)cc1C#Cc1cnc2cccnn12` [Ponatinib] (30 nM), for which the normalised viability was determined as 106% in assay [1]; 86.3% in assay [2]; 90% in assay [3]; 81.4% in assay [4]; 97% in assay [5]; 85.3% in assay [6].
For `N.N.[Cl][Pt][Cl]` [Cisplatin] (300 nM), the normalised viability in assay [1] is 104%; in assay [2], 108%; in assay [3], 99.5%; in assay [4] it was 93.6%; in assay [5], 78.9%; in assay [6], 107%.
For the compound `Clc1ccc(Nc2nnc(Cc3ccncc3)c3ccccc23)cc1` [Vatalanib] (300 nM), the normalised viability in assay [1] was 88.5%; in assay [2] it was 98.3%; in assay [3], 94.6%; in assay [4] it was 95%; in assay [5] it was 78.7%; in assay [6], 105%.
As to `CC1(C)NC(=O)N(c2ccc([N+](=O)[O-])c(C(F)(F)F)c2)C1=O` [Nilutamide] (300 nM), the normalised viability in assay [1] came out at 98%; in assay [2], 102%; in assay [3] it was 104%; in assay [4] it was 106%; in assay [5], 125%; in assay [6], 113%.
Regarding `Cc1ccc(C(=O)N(CCCN)[C@@H](c2oc3cc(Cl)ccc3c(=O)c2Cc2ccccc2)C(C)C)cc1` (30 nM), the normalised viability in assay [1] is 18.3%; in assay [2] it was 26.8%; in assay [3], 33.3%; in assay [4], 24.3%; in assay [5], 74%; in assay [6] it was 24.8%.
As for `COc1cc2nccc(Oc3ccc(NC(=O)C4(C(=O)Nc5ccc(F)cc5)CC4)cc3)c2cc1OC` [Cabozantinib] (30 nM), the normalised viability in assay [1] is 111%; in assay [2], 102%; in assay [3], 85.5%; in assay [4], 96.1%; in assay [5], 62.5%; in assay [6], 96.5%.
For `NCC(=O)CCC(=O)O` [Aminolevulinic acid] (300 nM), the normalised viability in assay [1] was determined as 113%; in assay [2], 102%; in assay [3], 91.4%; in assay [4], 91.8%; in assay [5] it was 90%; in assay [6], 117%.
Regarding `CO[C@H]1/C=C\C=C(/C)C(=O)NC2=CC(=O)C(NCCN(C)C)=C(C[C@@H](C)C[C@H](OC)[C@H](O)[C@@H](C)/C=C(\C)[C@@H]1OC(N)=O)C2=O` [Alvespimycin] (30 nM), the normalised viability turned out to be 48% in assay [1]; 63.5% in assay [2]; 62.8% in assay [3]; 1.87% in assay [4]; 44.2% in assay [5]; 7.17% in assay [6].
Regarding `CNCc1ccc(-c2[nH]c3cc(F)cc4c3c2CCNC4=O)cc1` [Rucaparib] (300 nM), the normalised viability in assay [1] amounted to 91.7%; in assay [2] it was 110%; in assay [3], 92.6%; in assay [4], 77.4%; in assay [5], 43.2%; in assay [6] it was 108%.
Turning to `CC(C)Cn1cnc2c(N)nc3ccccc3c21` [Imiquimod] (300 nM), the normalised viability is 96.5% in assay [1]; 97.5% in assay [2]; 102% in assay [3]; 80.5% in assay [4]; 75.3% in assay [5]; 103% in assay [6].
